Columns and labels:
J774A.1 cells = test: LPS-stimulated factor expression in J774A.1 cells (immunoblot); format: cell-based, murine; settings: 60 μM, 1 μg/ml LPS, 24 hours
Source text: FIGS. 2A & 2B Analysis of LPS stimulated cytokine expression. […] Reactions were terminated with 2×-SDS lysis buffer at indicated time points and the lysates were immunoblotted.
FIGS. 3A & 3B RSK inhibition abrogates LPS-induced iNOS expression. […] Twenty-four hours after treatment, reactions were terminated with 2×-SDS lysis buffer and the lysates were immunoblotted.
LPS activation of macrophages results in secretion of factors that stimulate the innate immune system. […] Twenty-four hours after LPS treatment the cells were lysed as previously described (Traish, et al., 1998. J. Biol. Chem. 273:13317-13323) in preparation for immunoblot analysis. Expression of the pro-inflammatory factors, TNFα, IL-1b, the anti-inflammatory factor, IL-10 and inducible nitric oxide synthase was examined by immunoblot of the cell lysates.

VCAM = test: LPS-induced VCAM expression in HUVEC cells; format: cell-based, human; settings: 1 μg/ml LPS, 24 hours
Source text: Twenty-four hours after LPS treatment, the cells were harvested with SDS lysis buffer in preparation for SDS-PAGE and immunoblot analysis. Lysates were normalized with regard to protein concentration. Equivalent loading was confirmed by use of an anti-Ran immunoblot.

Y. pseudotuberculosis = format: cell-based, Yersinia pseudotuberculosis; settings: 60 μM, liquid LB medium
macrophages = format: cell-based
MCF-7 cells = test: MCF-7 cell proliferation (CellTiter-Glo cell viability); format: cell-based, human
p140, a RSK substrate [1] = test: PDB-induced p140 phosphorylation in MCF-10A cells (immunoblot); format: cell-based, human
Procedure: (§1) To determine whether SL0101-1 inhibits RSK in intact cells, phosphorylation of p140, a RSK substrate of unknown function, was examined in a human breast cancer cell line, MCF-7. MCF-7 and MCF-10A cells were pre-incubated with vehicle, 50 μM U0126 or the indicated concentration of SL0101-1 for 3 hr (FIG. 8D). Cells were treated with 500 nM PDB for 30 min prior to lysis. Protein concentration of lysates was measured and lysates were electrophoresed, transferred and immunoblotted. […] Pre-incubation of cells with 100 μM SL0101-1 abrogates phorbol dibutyrate (PDB)-induced p140 phosphorylation as does 50 μM U0126, a MEK inhibitor.
(§2) Cell Culture. For proliferation studies cells were seeded at 2500 to 5000 cells per well in 96 well tissue culture plates in the appropriate medium as described by American Type Culture Collection. After 24 hr, the medium was replaced with medium containing compound or vehicle as indicated. Cell viability was measured at indicated time points using CellTiter-Glo™ assay reagent (Promega) according to manufacturer's protocol. For in vivo inhibition studies, cells were seeded at 2.5×10^5 cells/well in 12 well cell culture clusters. After 24 hr, the cells were serum starved for 24 hr then incubated with compound or vehicle for 3 hr prior to a 30 min PDB stimulation. Cells were lysed as previously described (J. Biol. Chem. 273, 13317-13323 (1998)). […]

[2] = test system: pp 140, a known RSK substrate; test: pp 140 phosphorylation in HUVEC cells; format: cell-based, human; settings: 60 μM, 2 hr; with or without 500 nM phorbol dibutyrate
Procedure: HUVEC cells were seeded at a density of 3×10^5 cells per 35 mm dish and were maintained in complete growth medium. […] The cells were harvested and lysates prepared for SDS-PAGE and immunoblot analysis. The phosphorylation state of pp 140 was determined using a phosphospecific antibody generated against the phosphorylated peptide—LAS(P)TND.

p140, a RSK substrate [3] = test: PDB-induced p140 phosphorylation in MCF-7 cells (immunoblot); format: cell-based, human; settings: 100 μM, 3 hr pre-incubation, 500 nM PDB 30 min
Procedure: as §1, §2

LNCaP cells = test: LNCaP cell proliferation; format: cell-based, human; settings: 50 μM (FIG. 8B)
Procedure: (§3) FIGS. 8A-8D SL0101-1 inhibits the proliferation of cancer cells but not normal cells. […] Cell viability was measured at indicated time points. Proliferation assays were conducted using CellTiter-Glo Luminescent Cell Viability Assay (Promega), performed 44 hrs after treatment for FIGS. 8A &B and at indicated points for FIG. 8C. The data are expressed relative to time 0.
as §2, with “(1998)). The lysates were normalized for total protein, electrophoresed and immunoblotted. For cell imaging, Ha-Ras-transformed NIH/3T3 cells were seeded on LABTEK II chamber slides (Nalge) at a density of 1×10^4 cells/well. After 24 hr, fresh medium was added the indicated compounds or vehicle.” for “(1998)).”

[4] = test system: RSK activity (eEF2 phosphorylation); test: eEF2 phosphorylation in J774A.1 macrophages; format: cell-based, murine; settings: J774A.1 cells
Source text: The translocation step in mRNA translation is mediated by eEF2. […] This phosphorylation is produced by a highly specific kinase, EF2 kinase (EF2K). RSK phosphorylates and inactivates EF2K in response to mitogenic stimulations, which leads to a decrease in eEF2 phosphorylation (Wang, et al. Embo J 20:4370-9). Under conditions in which RSK activity is low, as during serum deprivation, eEF2 is phosphorylated by the active EF2K. However, stimulation of RSK activity by mitogens such as phorbol dibutyrate (PDB) results in reduced phosphorylation of eEF2 due to inactivation of EF2K by RSK. Therefore, the phosphorylation state of eEF2 is an indicator of RSK activity. […] The levels of total eEF2 were not altered by any of the treatments.

MCF-10A cells = test: MCF-10A cell proliferation; format: cell-based, human; settings: 50 μM (FIG. 8A)
Procedure: The cell number was measured after 48 h of treatment. Values given are the fold proliferation as a percentage of that observed with vehicle-treated cells. Points, mean (n=2 in quadruplicate); bars=SD.
as §3
Cell Culture. For proliferation studies cells were seeded at 2500 to 5000 cells per well in 96 well tissue culture plates in the appropriate medium as described by American Type Culture Collection. After 24 hr, the medium was replaced with medium containing compound or vehicle as indicated. Cell viability was measured at indicated time points using CellTiter-Glo™ assay reagent (Promega) according to manufacturer's protocol. For in vivo inhibition studies, cells were seeded at 2.5×10^5 cells/well in 12 well cell culture clusters. After 24 hr, the cells were serum starved for 24 hr then incubated with compound or vehicle for 3 hr prior to a 30 min PDB stimulation. Cells were lysed as previously described (J. Biol. Chem. 273, 13317-13323 (1998)). The lysates were normalized for total protein, electrophoresed and immunoblotted. For cell imaging, Ha-Ras-transformed NIH/3T3 cells were seeded on LABTEK II chamber slides (Nalge) at a density of 1×10^4 cells/well. After 24 hr, fresh medium was added the indicated compounds or vehicle. Images were taken 48 hr after treatment at a magnification of 20×.

HUVEC cells = test: HUVEC cell growth; format: cell-based, human

## CC(=O)O[C@@H]1[C@@H](OC(C)=O)[C@@H](O)[C@H](Oc2c(-c3ccc(O)cc3)oc3cc(O)cc(O)c3c2=O)O[C@H]1C [SL0101, kaempferol 3-O-(3″,4″-di-O-acetyl-α-L-rhamnopyranoside)]
J774A.1 cells
  LPS-induced iNOS expression: abrogated the induction of iNOS expression
  expression of TNFα, IL-1b, IL-10: did not alter the expression
VCAM
  expression of VCAM: reduced expression of the angiogenesis marker VCAM in a dose-dependent manner
Y. pseudotuberculosis
  direct effect on growth of Y. pseudotuberculosis: does not directly affect the growth
macrophages
  Y. pseudotuberculosis-induced actin rearrangement: actin rearrangement is not observed
MCF-7 cells; 50 uM
  inhibition of MCF-7 cell growth: similarly effective at inhibiting MCF-7 cell growth
MCF-7 cells; 50 μM (FIG. 8A)
  proliferation of MCF-7 cells: inhibited proliferation
MCF-7 cells; Homo sapiens, MCF7, read-out: EC50 of MCF-7 cell proliferation inhibition
  EC50: ~50 µM
p140, a RSK substrate [1]
  PDB-induced p140 phosphorylation: prevented the PDB-induced p140 phosphorylation
[2]
  phosphorylation of pp 140: reduced the phosphorylation of pp 140
p140, a RSK substrate [3]
  PDB-induced p140 phosphorylation: abrogates
LNCaP cells
  proliferation of LNCaP cells: completely inhibits the proliferation
[4]
  peEF2 levels: increases peEF2 levels
MCF-10A cells
  proliferation of MCF-10A cells: no effect on the growth
HUVEC cells
  rate of HUVEC cell growth: does not alter the rate of HUVEC cell growth

From patent publication US9040673B2, “Synthesis and identification of novel RSK-specific inhibitors” (University of Virginia Patent Foundation, priority 2009, dated 2015)
